Laboratory results as given in PubChem BioAssay (NCI).
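Exposure lasted 48 hours, with cells grown in 96-well plates and compounds tested at five concentrations. The concentration for 50% growth inhibition is given as GI50. TGI marks complete inhibition of growth.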

Tests used:
Assay in all cases: growth of human tumour cells (NCI), 48 h
[1] = tested on: RXF 393 renal
[2] = tested on: A549 NSCLC
[3] = tested on: PC-3 prostate
[4] = tested on: MDA-MB-231 breast
[5] = tested on: ACHN renal
[6] = tested on: MOLT-4 leukemia
[7] = tested on: OVCAR-5 ovarian
[8] = tested on: MDA-N
[9] = tested on: NCI/ADR-RES ovarian
[10] = tested on: OVCAR-4 ovarian
[11] = tested on: SNB-75 CNS
[12] = tested on: KM12 colon
[13] = tested on: OVCAR-8 ovarian
[14] = tested on: SNB-19 CNS
[15] = tested on: A498 renal
[16] = tested on: HT29 colon
[17] = tested on: SF-295 CNS
[18] = tested on: COLO 205 colon
[19] = tested on: LOX IMVI melanoma
[20] = tested on: TK-10 renal
[21] = tested on: 786-0 renal
[22] = tested on: SN12C renal
[23] = tested on: UO-31 renal
[24] = tested on: MCF7 breast
[25] = tested on: SR leukemia
[26] = tested on: RPMI-8226 leukemia
[27] = tested on: HL-60(TB) leukemia
[28] = tested on: SK-MEL-5 melanoma
[29] = tested on: EKVX NSCLC
[30] = tested on: MDA-MB-435
[31] = tested on: SK-MEL-2 melanoma
[32] = tested on: M14 melanoma
[33] = tested on: CCRF-CEM leukemia
[34] = tested on: HOP-92 NSCLC
[35] = tested on: T-47D breast
[36] = tested on: SF-268 CNS
[37] = tested on: U251 CNS
[38] = tested on: SW-620 colon
[39] = tested on: CAKI-1 renal
[40] = tested on: SF-539 CNS
[41] = tested on: UACC-257 melanoma
[42] = tested on: NCI-H460 lung
[43] = tested on: SK-MEL-28 melanoma
[44] = tested on: HS 578T breast
[45] = tested on: HCT-15 colon
[46] = tested on: K-562 leukemia
[47] = tested on: UACC-62 melanoma
[48] = tested on: SK-OV-3 ovarian
[49] = tested on: HOP-62 NSCLC
[50] = tested on: HCC-2998 colon
[51] = tested on: OVCAR-3 ovarian
[52] = tested on: NCI-H23 lung
[53] = tested on: MALME-3M melanoma
[54] = tested on: BT-549 breast
[55] = tested on: NCI-H522 lung
[56] = tested on: NCI-H226 lung
[57] = tested on: IGROV1 ovarian
[58] = tested on: DU-145 prostate

`CC[C@@]1(OC(=O)CN)C(=O)OCc2c1cc1n(c2=O)Cc2cc3cc4c(cc3nc2-1)OCO4` gave a GI50 [1] of under 10 nM, a TGI [1] of 192 nM and a GI50 [2] of under 10 nM. The TGI [2] was 309 nM, the GI50 [3] was 27.5 nM and the TGI [3] was over 100000 nM. The GI50 [4] was 787 nM, the TGI [4] was over 23700 nM and the GI50 [5] was under 10 nM. The TGI [5] was under 10 nM, the GI50 [6] was under 10 nM and the GI50 [7] was under 16.9 nM. For the same molecule, the TGI [7] was 232 nM, the GI50 [8] was under 10 nM and the TGI [8] was 2270 nM. The GI50 [9] was under 10 nM, the TGI [9] was 15 nM and the GI50 [10] was 98.8 nM. The TGI [10] was 826 nM, the GI50 [11] was under 10 nM and the GI50 [12] was 34.6 nM. The TGI [12] was 296 nM, the GI50 [13] was under 10 nM and the TGI [13] was 130 nM. For the same molecule, the GI50 [14] was under 10 nM, the TGI [14] was 92800 nM and the GI50 [15] was under 10 nM. For the same molecule, the TGI [15] was 126 nM, the GI50 [16] was under 10 nM and the GI50 [17] was under 10 nM. It also gave a TGI [17] of under 10 nM, a GI50 [18] of 127 nM and a TGI [18] of 1530 nM. It also gave a GI50 [19] of under 10 nM, a TGI [19] of 119 nM and a GI50 [20] of 108 nM. It also gave a TGI [20] of 9210 nM, a GI50 [21] of under 10 nM and a TGI [21] of 36.7 nM. For the same molecule, the GI50 [22] was under 10 nM, the TGI [22] was 563 nM and the GI50 [23] was under 10 nM. For the same molecule, the TGI [23] was 111 nM, the GI50 [24] was under 10 nM and the TGI [24] was over 100000 nM. The GI50 [25] was under 10 nM, the GI50 [26] was under 10.4 nM and the TGI [26] was 582 nM. The GI50 [27] was under 10 nM, the GI50 [28] was under 10 nM and the TGI [28] was 134 nM. For the same molecule, the GI50 [29] was 73.5 nM, the TGI [29] was over 100000 nM and the GI50 [30] was under 13.1 nM. For the same molecule, the TGI [30] was 838 nM, the GI50 [31] was 105 nM and the TGI [31] was 438 nM. The GI50 [32] was under 10 nM, the TGI [32] was 43.9 nM and the GI50 [33] was under 10 nM. For the same molecule, the GI50 [34] was under 10 nM, the TGI [34] was 404 nM and the GI50 [35] was under 10 nM. It also gave a TGI [35] of over 100000 nM, a GI50 [36] of under 10 nM and a GI50 [37] of under 10 nM. For the same molecule, the TGI [37] was 202 nM, the GI50 [38] was under 10 nM and the GI50 [39] was under 10 nM. For the same molecule, the GI50 [40] was under 10 nM, the TGI [40] was under 10 nM and the GI50 [41] was under 23.4 nM. It also gave a TGI [41] of 417 nM, a GI50 [42] of under 10 nM and a TGI [42] of 23.8 nM. It also gave a GI50 [43] of 209 nM, a TGI [43] of 10800 nM and a GI50 [44] of 399 nM. For the same molecule, the TGI [44] was over 100000 nM, the GI50 [45] was 29.1 nM and the TGI [45] was over 100000 nM. It also gave a GI50 [46] of under 10 nM, a GI50 [47] of under 10 nM and a TGI [47] of 105 nM. For the same molecule, the GI50 [48] was under 10 nM, the TGI [48] was 73.6 nM and the GI50 [49] was under 10 nM. For the same molecule, the TGI [49] was under 49.5 nM, the GI50 [50] was 17.1 nM and the TGI [50] was 1380 nM. The GI50 [51] was under 23.9 nM, the TGI [51] was 412 nM and the GI50 [52] was under 10 nM. It also gave a TGI [52] of under 12.8 nM, a GI50 [53] of under 10 nM and a TGI [53] of 459 nM. It also gave a GI50 [54] of 15.7 nM, a TGI [54] of 552 nM and a GI50 [55] of under 10 nM. The TGI [55] was 246 nM, the GI50 [56] was under 10 nM and the TGI [56] was 121 nM. For the same molecule, the GI50 [57] was under 14.5 nM, the TGI [57] was 815 nM and the GI50 [58] was under 10 nM. For the same molecule, the TGI [58] was under 12 nM.
